Measured values taken from US20240327388A1, “QUINOLINAMINE COMPOUND, PREPARATION METHOD THEREFOR AND APPLICATION THEREOF IN PHARMACEUTICALS” (JIANGSU HENGRUI PHARMACEUTICALS CO., LTD., priority 2021, published 2024).
Read-outs that look alike come from different tables or passages of the source.

What was measured:
[1] = Pharmacokinetic study in rats (intragastric administration and intravenous injection, LC/MS/MS); format: in vivo, SD rats; conditions: rat; for Vd/F / AUC / CL/F / half-life / Cmax / MRT / Vd / clearance: both sexes, SD, plasma; for Vd/F: read-out: Apparent volume of distribution Vz/F; for AUC: read-out: Area under curve AUC; for CL/F: read-out: Clearance CL/F; for half-life: read-out: Half-life t½ (converted); for Cmax: read-out: Plasma concentration Cmax; for MRT: read-out: Residence time MRT; for Vd: read-out: Apparent volume of distribution Vz; for clearance: read-out: Clearance CL
Description: With rats as test animals, the plasma concentration of the compound of Example 2 and a comparative compound A (see compound (1) of Example 3 in WO2016135052A1) were determined by LC/MS/MS at different time points after intragastric administration and intravenous injection to the rats. The pharmacokinetic behavior in rats of the compound disclosed herein was studied and its pharmacokinetic profile was evaluated.
16 healthy adult SD rats (half male and half female, purchased from Vital River Laboratory Animal Technology Co., Ltd.) were evenly divided into 4 groups.
A certain amount of the compound was weighed out, and 5% of DMSO, 5% of Tween 80, and 90% of normal saline were added to give a colorless and clear solution.
Intragastric administration group: SD rats were fasted overnight, and then the compound was administered intragastrically to the rats at a dose of 2 mg/kg and a volume of 10.0 mL/kg.
Intravenous administration group: SD rats were fasted overnight, and then the compound was administered to the rats by intravenous injection at a dose of 1 mg/kg and a volume of 5.0 mL/kg.
Intragastric administration group: The compound of Example 2 and the comparative compound A were administered intragastrically to the rats, and 0.1 mL of blood was collected from the orbit before administration and 0.25 h, 0.5 h, 1.0 h, 2.0 h, 4.0 h, 6.0 h, 8.0 h, 11.0 h and 24.0 h after administration. The blood was placed in an EDTA-K2 anticoagulation tube and centrifuged at 10000 rpm for 1 min at 4° C. The plasma was separated within 1 h and stored at −20° C. before analysis. The process from blood collection to centrifugation was performed in an ice bath. Two hours after administration, feeding was resumed.
Intravenous administration group: The rats were injected intravenously with the compound of Example 2 and the comparative compound A, and the blood was collected before administration and 5 min, 15 min, 0.5 h, 1.0 h, 2.0 h, 4.0 h, 8.0 h, 11.0 h and 24.0 h after administration and treated in the same way as the blood of the intragastric administration group.
Determination of plasma concentrations in rats after intragastric administration and intravenous injection of the test compounds at different concentrations: 20 μL of rat plasma at each time point after administration was mixed with 50 μL of an internal standard solution (camptothecin, 100 ng/mL) and 200 μL of acetonitrile, and the mixture was vortexed for 5 min and centrifuged for 10 min at 3700-4000 rpm. 1.0-2.0 μL of supernatant of the plasma sample was taken for LC/MS/MS analysis.

[2] = system: dextran sulfate sodium salt (DSS)-induced UC mice; experiment: Prophylactic and therapeutic effects on DSS-induced ulcerative colitis (UC) in mice; format: in vivo, female C57BL/6 mice; conditions: for efficacy on DSS-induced UC (conclusion in words): 50 mg/kg, body weight and colon length; for body weight decreasing rate / colon length, % of that of the normal control group: DSS-induced UC mice
Description: In the experiment, female C57BL/6 mice from Vital River were selected to establish an ulcerative colitis (UC) model induced by dextran sulfate sodium salt (DSS), and the prophylactic and therapeutic effects of a positive compound ABX-464 (see compound 90 in WO2015001518A1) and compound 1 disclosed herein on the DSS-induced ulcerative colitis were evaluated.
Female C57BL/6 mice for experiments, purchased from Vital River Laboratory Animal Technology Co., Ltd. (production license number: SCXK (Zhejiang) 2019-0001, animal certification number: 20210401Abzz0619000795), weighing 20-22 g at the time of purchase, were bred at 5 mice/cage in an independent SPF space (in 12/12-hour light/dark cycle, at a constant temperature of 23±1° C. and a humidity of 50%-60%) and given ad libitum access to food and water. After purchase, the animals were acclimatized for at least 1 week, and then the experiment began.
The mice were randomly divided by body weight into the following 5 groups: normal control group (Naïve group), model group (DSS group), ABX-464 (50 mg/kg, p.o., qd) group, ABX-464 (50 mg/kg, p.o., bid) group, and compound 1 disclosed herein (50 mg/kg, p.o., bid) group. After acclimatization, the mice were subjected to 2.5% DSS feeding from day 0. After 7 days of DSS feeding, the mice were fed normal water until day 10. The corresponding solvents and drugs were administered intragastrically for 10 consecutive days from day 0 to day 10, and the mice were observed daily for changes in body weight from day 0 to day 10. On day 10, the mice were weighed, and the colon length was measured.
The experimental data are expressed as mean±standard error (SEM). Statistical comparison was performed using Excel software t-test. The data of the model group and the data of the normal control group were analyzed and compared. #P<0.05 indicates a significant difference between the model group and the normal control group, ##P<0.01 indicates a highly significant difference between the model group and the normal control group, and ###P<0.001 indicates a very highly significant difference between the model group and the normal control group. *P<0.05 indicates a significant difference between the administration group and the model group, **P<0.01 indicates a highly significant difference between the administration group and the model group, and ***P<0.001 indicates a very highly significant difference between the administration group and the model group.

miR-124 = experiment: Up-regulation of miR-124 in CD3/CD28 antibody-activated T cells (SYBR green quantitative PCR); format: cell-based; conditions: T-cell, 72 h; activated human T cells, 1 μM compound, 3 days, relative to DMSO, U6 internal reference
Description: The effect of the compound on miR-124 expression levels was detected in CD3/CD28 antibody-activated T cells. After the activated T cells were treated with the compound, the total cellular RNA was extracted, the cDNA obtained from reverse transcription was used as a template, and quantification was performed by an SYBR green fluorescence quantitative PCR method using a specific miR-124 primer.
Isolation of T cells: Purchased human peripheral blood mononuclear cells (PBMCs) were counted, centrifuged, and washed once with a separation buffer (PBS, pH 7.4, containing 0.5% BSA and 2 mM EDTA), and the supernatant was discarded. The components were added in an amount of 40 μL of a buffer and 10 μL of pan T Cell Biotin-Antibody Cocktail per 1×10^7 cells, and the pellet was resuspended. The resulting suspension was mixed and incubated in a refrigerator at 4° C. for 5 min. After the incubation was completed, the components were added in an amount of 30 μL of a buffer and 20 μL of Pan T Cell MicroBeads Cocktail per 1×10^7 cells, and the resulting suspension was mixed and incubated in a refrigerator at 4° C. for 10 min. The separation column (LS column) was rinsed with 3 mL of a cell separation buffer in advance, loaded with the above cell suspension, and then repeatedly washed 3 times with 1 mL of the cell separation buffer. The effluent cell fluid was collected in a 15 mL centrifuge tube, thus giving the enriched T cells. The cells were counted and added at a density of 1×10^6 cells/mL to an RPMI1640 medium (complete medium) containing 10% FBS and 40) U/mL IL-2, and the resulting mixture was kept on ice for later use.
Activation of T cells: The corresponding Dynabead Human T-Activator CD3/CD28 for T Cell Expansion and Activation were added to a 1.5 mL centrifuge tube in an amount of 25 μL of the activated magnetic beads per 1×10^6 cells, which should be shaken on a shaker for about 30 s before aspiration. In the centrifuge tube, at a volume ratio of greater than 1:1, the activated magnetic beads were washed 3 times with a medium, and all the washing liquid was removed after the last washing. A complete medium with a volume equal to the starting volume was added to resuspend the activated magnetic beads. The washed activated magnetic beads were added to the cell resuspension, and the resulting mixture was well mixed. The cells were added to a six-well plate at 3 mL/well and incubated in a cell incubator at 37° C. with 5% CO2 for 2 days.
Compound treatment: A 20 mM compound stock solution was diluted to 200 μM with DMSO, and then diluted 4-fold to 50 μM (50)×) with a complete medium. The resulting mixture was well mixed for later use. 4-fold diluted DMSO (25% DMSO) was added to negative control wells. T cells were activated for two days and pipetted uniformly. The 1.5 mL centrifuge tube was mounted on a magnetic rack, and the activated magnetic beads were removed. The cell suspension was collected, and the cells were counted and then centrifuged at 300×g for 10 min to discard the supernatant. The cells were then resuspended to 1.02×10^6 cells/mL, and 980 μL of the cell suspension and 20 μL of the 50× compound were added to each 24-well plate, with the final concentration of the compound being 1 μM. The cells were placed in a cell incubator at 37° C. with 5% CO2 for another 3 days.
RNA extraction: T cells were collected by centrifugation at 1500 rpm for 3 min, washed once with PBS, and centrifuged again to discard the supernatant. The total cellular RNA was extracted using a microRNA extraction kit according to the package insert. 700 μL of a Trizol cell lysis buffer was added to the cell pellet, and the resulting mixture was pipetted uniformly and left at room temperature for 5 min. 140 μL of chloroform was added, and the resulting mixture was well mixed with shaking and left to stand at room temperature for 3 min. The chloroform-cell lysis buffer mixture was centrifuged at 12000×g and 4° C. for 15 min. […]

[3] = po, intragastric administration, 2 mg/kg

| Vd/F [1, 3] [L/kg] | AUC [1, 3] [ng·h/mL] | CL/F [1, 3] [mL/min/kg] | half-life [1, 3] [h] | Cmax [1, 3] [ng/mL] | MRT [1, 3] [h] | Vd ([1]; intravenous injection, 1 mg/kg) [L/kg] | AUC ([1]; intravenous injection, 1 mg/kg) [ng·h/mL] | clearance ([1]; intravenous injection, 1 mg/kg) [mL/min/kg] | half-life ([1]; intravenous injection, 1 mg/kg) [h] | MRT ([1]; intravenous injection, 1 mg/kg) [h] | SMILES | efficacy on DSS-induced UC (conclusion in words) [2] | body weight decreasing rate ([2]; day 10, 50 mg/kg p.o. bid) [%] | colon length, % of that of the normal control group ([2]; day 10, 50 mg/kg p.o. bid) [%] | body weight decreasing rate ([2]; day 10, 50 mg/kg p.o. qd) [%] | colon length, % of that of the normal control group ([2]; day 10, 50 mg/kg p.o. qd) [%] | fold induction at 1 µM (miR-124) | pharmacokinetic profile (conclusion in words) ([1]; compared to comparative compound A) |
| --- | --- | --- | --- | --- | --- | --- | --- | --- | --- | --- | --- | --- | --- | --- | --- | --- | --- | --- |
| 21.4 | 311 | 95.7 | 2.57 | 105 | 3.76 | 0.151 | 11900 | 1.45 | 1.24 | 1.17 | O=C(O)[C@H]1O[C@@H](N(c2ccc(OC(F)(F)F)cc2)c2ccc3cccc(Cl)c3n2)[C@H](O)[C@@H](O)[C@@H]1O [A, reference compound] |  |  |  |  |  |  |  |
|  |  |  |  |  |  |  |  |  |  |  | FC(F)(F)Oc1ccc(Nc2ccc3cccc(Cl)c3n2)cc1 [ABX-464] | certain prophylactic and therapeutic effects on the DSS-induced UC | 10.3 | 89.3 | 14.1 | 85.5 |  |  |
|  |  |  |  |  |  |  |  |  |  |  | FC1(F)Oc2ccc(Nc3ccc4cccc(Cl)c4n3)cc2O1 [Compound 1, 8-Chloro-N-(2,2-difluorobenzo[d][1,3]dioxol-5-yl)quinolin-2-amine] | better efficacy in terms of body weight and colon length than the positive drug ABX-464 | 0.4 | 91.9 |  |  | 3.9 |  |
| 6.18 | 1220 | 28.7 | 2.47 | 242 | 4.32 | 0.178 | 23000 | 0.781 | 2.85 | 2.1 | O=C(O)[C@H]1O[C@@H](N(c2ccc3c(c2)OC(F)(F)O3)c2ccc3cccc(Cl)c3n2)[C@H](O)[C@@H](O)[C@@H]1O [Compound 2, (2S,3S,4S,5R,6R)-6-((8-Chloroquinolin-2-yl)(2,2-difluorobenzo[d][1,3]dioxol-5-yl)amino)-3,4,5-trihydroxytetrahydro-2H-pyran-2-carboxylic acid] |  |  |  |  |  | 1.2 | good absorption profile and significant pharmacokinetic superiority as compared to the comparative compound A |
